Drawing on patent US20240199546A1, “INHIBITORS OF SOLUTE CARRIER FAMILY 6A MEMBER 19 (SLC6A19) AND METHODS OF USE THEREOF” (Maze Therapeutics, Inc., priority 2022, published 2024), this text covers IC50 for 31 compounds.

The experiment concerns the target T1, human SLC6A19 and TMEM27 (Homo sapiens, UniProt Q695T7).
T1 construct: expressed in transfected cells
T1 sequence (Q695T7 1-634): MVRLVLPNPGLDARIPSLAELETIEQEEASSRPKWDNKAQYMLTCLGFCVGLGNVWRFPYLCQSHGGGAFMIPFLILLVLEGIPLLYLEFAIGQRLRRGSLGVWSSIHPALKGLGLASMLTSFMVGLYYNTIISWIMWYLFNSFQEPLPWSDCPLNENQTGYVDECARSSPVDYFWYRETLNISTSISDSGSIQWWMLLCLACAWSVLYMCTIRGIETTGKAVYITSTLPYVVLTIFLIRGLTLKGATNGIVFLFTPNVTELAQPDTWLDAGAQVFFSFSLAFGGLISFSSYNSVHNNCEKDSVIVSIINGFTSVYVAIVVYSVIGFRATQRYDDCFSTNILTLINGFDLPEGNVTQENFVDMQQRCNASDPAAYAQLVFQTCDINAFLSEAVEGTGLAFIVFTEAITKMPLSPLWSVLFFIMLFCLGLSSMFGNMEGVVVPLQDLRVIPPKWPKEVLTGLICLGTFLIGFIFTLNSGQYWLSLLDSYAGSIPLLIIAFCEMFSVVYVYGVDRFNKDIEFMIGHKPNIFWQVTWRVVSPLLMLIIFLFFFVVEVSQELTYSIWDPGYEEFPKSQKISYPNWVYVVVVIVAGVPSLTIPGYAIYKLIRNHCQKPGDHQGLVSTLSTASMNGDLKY
T1 sequence (Q9HBJ8 15-222 partner): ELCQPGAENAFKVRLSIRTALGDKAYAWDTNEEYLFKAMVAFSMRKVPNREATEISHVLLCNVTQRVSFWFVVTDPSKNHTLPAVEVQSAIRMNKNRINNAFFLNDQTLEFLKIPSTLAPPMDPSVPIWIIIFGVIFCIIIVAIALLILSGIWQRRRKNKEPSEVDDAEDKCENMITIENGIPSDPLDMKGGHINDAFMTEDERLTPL
Description: Radiolabelled (3H) leucine uptake in CHO cells with doxycycline-inducible expression of human SLC6A19 and TMEM27 (Example B-1). The format is cell-based. Particulars: CHO cells with doxycycline-inducible expression of human SLC6A19 and TMEM27, read-out: SLC6A19_Radioligand Uptake Assay IC50. In short, it runs like this: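 CHO cells were induced with doxycycline for 18 h at 37 °C, washed in HBSS, then exposed to compounds for 1 h: 8-point, 3-fold dilutions in duplicate, 0.5% DMSO final. Uptake measured by scintillation counting after 2 h shaking. Activity normalized with positive control as 0% and DMSO as 100%.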
Take `CO[C@H](C)C(=O)NCc1cc2cc(Cl)c(OCc3cc(C)no3)cc2[nH]1` [Compound 314, (R)-N-((5-chloro-6-((3-methylisoxazol-5-yl)methoxy)-1H-indol-2-yl)methyl)-2-methoxypropanamide]: the IC50 (usually the midpoint of a concentration-inhibition curve) turned out to be 375 nM.
The same measure for `O=C(NCc1cc2cc(Cl)c(OCc3cscn3)cc2[nH]1)[C@@H]1CCO1` [Compound 315, (S)-N-((5-chloro-6-(thiazol-4-ylmethoxy)-1H-indol-2-yl)methyl)oxetane-2-carboxamide]: 148 nM; for `O=C(NCc1cc2cc(Cl)c(OCc3cscn3)cc2[nH]1)[C@@H]1CCOC1` [Compound 316, (R)-N-((5-chloro-6-(thiazol-4-ylmethoxy)-1H-indol-2-yl)methyl)tetrahydrofuran-3-carboxamide]: 284 nM.
`Cc1cc(COc2cc3[nH]c(CNC(=O)[C@H]4CCO4)cc3cc2Cl)on1` [Compound 317, (R)-N-((5-chloro-6-((3-methylisoxazol-5-yl)methoxy)-1H-indol-2-yl)methyl)oxetane-2-carboxamide]: the IC50 came out at 119 nM.
Take `Cc1nc(COc2cc3[nH]c(CNC(=O)C4(C)CC4)cc3cc2Cl)no1` [Compound 318, N-((5-chloro-6-((5-methyl-1,2,4-oxadiazol-3-yl)methoxy)-1H-indol-2-yl)methyl)-1-methylcyclopropane-1-carboxamide]: the IC50 was found to be 226 nM.
With `CC1(C(=O)NCc2cc3cc(Cl)c(OCc4ncon4)cc3[nH]2)CC1` [Compound 319, N-((6-((1,2,4-oxadiazol-3-yl)methoxy)-5-chloro-1H-indol-2-yl)methyl)-1-methylcyclopropane-1-carboxamide], the IC50 turned out to be 273 nM.
In the case of `CC1(C(=O)NCc2cc3cc(Cl)c(OCc4sncc4Cl)cc3[nH]2)CC1` [Compound 325, N-((5-chloro-6-((4-chloroisothiazol-5-yl)methoxy)-1H-indol-2-yl)methyl)-1-methylcyclopropane-1-carboxamide], the IC50 was found to be 3730 nM.
Under `CC1(C(=O)NCc2cc3cc(F)c(OCc4ccno4)cc3[nH]2)CC1` [Compound 328, N-((5-fluoro-6-(isoxazol-5-ylmethoxy)-1H-indol-2-yl)methyl)-1-methylcyclopropane-1-carboxamide] stands 147 nM; under `Cc1cc(COc2cc3[nH]c(CNC(=O)C4(C)CC4)cc3cc2F)no1` [Compound 329, N-((5-fluoro-6-((5-methylisoxazol-3-yl)methoxy)-1H-indol-2-yl)methyl)-1-methylcyclopropane-1-carboxamide], 167 nM; under `CC1(C(=O)NCc2cc3cc(Cl)c(OCCc4cccnc4)cc3[nH]2)CC1` [Compound 331, N-((5-chloro-6-(2-(pyridin-3-yl)ethoxy)-1H-indol-2-yl)methyl)-1-methylcyclopropane-1-carboxamide], 452 nM.
For `COCCOc1cc2[nH]c(CNC(=O)C3(C)CC3)cc2cc1Cl` [Compound 333, N-((5-chloro-6-(2-methoxyethoxy)-1H-indol-2-yl)methyl)-1-methylcyclopropane-1-carboxamide], the IC50 came to 206 nM.
The same measure for `CC1(C(=O)NCc2cc3cc(Cl)c(OCc4cccnn4)cc3[nH]2)CC1` [Compound 334, N-((5-chloro-6-(pyridazin-3-ylmethoxy)-1H-indol-2-yl)methyl)-1-methylcyclopropane-1-carboxamide]: 519 nM; for `CC1(C(=O)NCc2cc3cc(Cl)c(OCCOC4CC4)cc3[nH]2)CC1` [Compound 335, N-((5-chloro-6-(2-cyclopropoxyethoxy)-1H-indol-2-yl)methyl)-1-methylcyclopropane-1-carboxamide]: 126 nM.
The same measure for `CC1(C(=O)NCc2cc3cc(Cl)c(OCC4COC4)cc3[nH]2)CC1` [Compound 336, N-((5-chloro-6-(oxetan-3-ylmethoxy)-1H-indol-2-yl)methyl)-1-methylcyclopropane-1-carboxamide]: 1190 nM; for `COc1ccc(COc2cc3[nH]c(CNC(=O)C4(C)CC4)cc3cc2Cl)nn1` [Compound 337, N-((5-chloro-6-((6-methoxypyridazin-3-yl)methoxy)-1H-indol-2-yl)methyl)-1-methylcyclopropane-1-carboxamide]: 1190 nM.
As to `CC(=O)NCc1cc2cc(Cl)c(OCCOC(F)(F)F)cc2[nH]1` [Compound 338, N-((5-chloro-6-(2-(trifluoromethoxy)ethoxy)-1H-indol-2-yl)methyl)acetamide], the IC50 is 159 nM.
Under `Cc1cc(COc2cc(F)c3cc(CNC(=O)C4(C)CC4)[nH]c3c2)on1` [Compound 339, N-((4-fluoro-6-((3-methylisoxazol-5-yl)methoxy)-1H-indol-2-yl)methyl)-1-methylcyclopropane-1-carboxamide] stands 328 nM; under `Cc1cc(COc2cc(F)c3cc(CNC(=O)C4(C)CC4)[nH]c3c2)no1` [Compound 340, N-((4-fluoro-6-((5-methylisoxazol-3-yl)methoxy)-1H-indol-2-yl)methyl)-1-methylcyclopropane-1-carboxamide], 277 nM; under `[2H]C([2H])(NC(C)=O)c1cc2cc(Cl)c(OCc3cc(C)no3)cc2[nH]1` [Compound 345, N-((5-chloro-6-((3-methylisoxazol-5-yl)methoxy)-1H-indol-2-yl)methyl-d2)acetamide], 62.7 nM.
The same measure for `CSc1cc2cc(CNC(=O)C3(C)CC3)[nH]c2cc1OCc1cscn1` [Compound 348, 1-methyl-N-((5-(methylthio)-6-(thiazol-4-ylmethoxy)-1H-indol-2-yl)methyl)cyclopropane-1-carboxamide]: 516 nM; for `CC(=O)NCc1cc2ccc(OCc3cc(C)no3)cc2[nH]1` [Compound 349, N-((6-((3-methylisoxazol-5-yl)methoxy)-1H-indol-2-yl)methyl)acetamide]: 2930 nM; for `CC1(C(=O)NCc2cc3cc(Cl)c(OCc4ccc5cc[nH]c5c4)cc3[nH]2)CC1` [Compound 350, N-((6-((1H-indol-6-yl)methoxy)-5-chloro-1H-indol-2-yl)methyl)-1-methylcyclopropane-1-carboxamide]: above 8380 nM.
Take `CC1(C(=O)NCc2cc3cc(Cl)c(OCC4CC(F)(F)C4)cc3[nH]2)CC1` [Compound 353, N-((5-chloro-6-((3,3-difluorocyclobutyl)methoxy)-1H-indol-2-yl)methyl)-1-methylcyclopropane-1-carboxamide]: the IC50 was 1930 nM.
As to `CC1(C(=O)NCc2cc3ccc(OCc4cc(C(F)(F)F)on4)cc3[nH]2)CC1` [Compound 354, 1-methyl-N-((6-((5-(trifluoromethyl)isoxazol-3-yl)methoxy)-1H-indol-2-yl)methyl)cyclopropane-1-carboxamide], the IC50 is above 5280 nM.
Under `CC(=O)NCc1cc2cc(Cl)c(OCC3COC3)cc2[nH]1` [Compound 355, N-((5-chloro-6-(oxetan-3-ylmethoxy)-1H-indol-2-yl)methyl)acetamide] stands 6600 nM; under `CC1(C(=O)NCc2cc3cc(Cl)c(OCc4cnccc4F)cc3[nH]2)CC1` [Compound 356, N-((5-chloro-6-((4-fluoropyridin-3-yl)methoxy)-1H-indol-2-yl)methyl)-1-methylcyclopropane-1-carboxamide], 389 nM; under `O=C(NCc1cc2cc(F)c(OCc3cocn3)cc2[nH]1)N1CCC1` [Compound 358, N-((5-fluoro-6-(oxazol-4-ylmethoxy)-1H-indol-2-yl)methyl)azetidine-1-carboxamide], 319 nM.
Take `CN(C(=O)NCc1cc2cc(Cl)c(OCc3cscn3)cc2[nH]1)C1CC1` [Compound 359, 3-((5-chloro-6-(thiazol-4-ylmethoxy)-1H-indol-2-yl)methyl)-1-cyclopropyl-1-methylurea]: the IC50 turned out to be 231 nM.
On to `C[C@H]1CCN1C(=O)NCc1cc2cc(Cl)c(OCc3cscn3)cc2[nH]1` [Compound 360, (S)-N-((5-chloro-6-(thiazol-4-ylmethoxy)-1H-indol-2-yl)methyl)-2-methylazetidine-1-carboxamide], for which the IC50 was 432 nM.
As for `C[C@@H]1CCN1C(=O)NCc1cc2cc(Cl)c(OCc3cscn3)cc2[nH]1` [Compound 361, (R)-N-((5-chloro-6-(thiazol-4-ylmethoxy)-1H-indol-2-yl)methyl)-2-methylazetidine-1-carboxamide], the IC50 was 286 nM.
In the case of `C[C@H]1CCN1C(=O)NCc1cc2cc(Cl)c(OCc3ccon3)cc2[nH]1` [Compound 362, (S)-N-((5-chloro-6-(isoxazol-3-ylmethoxy)-1H-indol-2-yl)methyl)-2-methylazetidine-1-carboxamide], the IC50 came to 983 nM.
